# Measured values published in patent publication US20090042883A1, “ANTITUMOR AGENT” (KYOWA HAKKOKOGYO CO., priority 2005, published 2009).
# Tests used:
# Format in all cases: cell-based
# [1] = tested on: human T-cell lymphoma Karpas-299 cells; experiment: Growth inhibition test on human T-cell lymphoma Karpas-299 cells (WST-1, % viability); details: test compound 10 μmol/L, 72 hours, cells without test compound = 100%
# Experimental: (§1) Five thousand cells of human T-cell lymphoma Karpas-299 were inoculated into each well of a 96-well microplate (manufactured by Nunc Corp.), and using RPMI medium (culture medium) containing 10% FCS, preculturing was performed in a 5% carbon dioxide incubator at 37° C. for 5 hours. A DMSO solution of each test compound prepared in a concentration of 10 mmol/L was diluted with the culture medium to a final concentration of 10 μmol/L, and the diluted solution was added to each well. The individual wells were further cultured in the 5% carbon dioxide incubator at 37° C. for 72 hours. After completion of the culturing, 10 μL of WST-1 labeled mixture (manufactured by Roche Diagnostic Corp.) was added to each well, and culturing was performed in the 5% carbon dioxide incubator at 37° C. for 2 hours. Using a microplate spectrophotometer (SpectraMax 340PC384; manufactured by Nihon Molecular Devices), the absorbance of each well was measured at 450 nm and 655 nm. The value obtained by subtracting the absorbance at 450 nm from the absorbance at 655 nm (absorbance difference) was calculated for each well. The value for cells not incorporated with a test compound was designated as 100%, and the value at a well not containing cells was designated as 0%. By comparing these values with the absorbance difference obtained at the well in which each test compound was added, the cell viability (% viability) after treatment with the test compound was calculated.
# [2] = tested on: human chronic lymphocytic leukemia-derived MEC-1 cells; experiment: Growth inhibition test on human chronic lymphocytic leukemia-derived MEC-1 cells (WST-1, % viability); details: test compound 10 μmol/L, 72 hours, cells without test compound = 100%
# Experimental: Ten thousand cells of human chronic lymphocytic leukemia-derived MEC-1 were inoculated into each well of a 96-well microplate (manufactured by Nunc Corp.), and using RPMI1640 medium (culture medium) containing 10% FCS, preculturing was performed in a 5% carbon dioxide incubator at 37° C. for 1 hour. A DMSO solution of each test compound prepared in a concentration of 10 mmol/L was diluted with the culture medium to a final concentration of 10 μmol/L, and the diluted solution was added to each well. The individual wells were further cultured in the 5% carbon dioxide incubator at 37° C. for 72 hours. After completion of the culturing, 10 μL of WST-1 labeled mixture (manufactured by Roche Diagnostic Corp.) was added to each well, and culturing was performed in the 5% carbon dioxide incubator at 37° C. for 3 hours. Using a microplate spectrophotometer (M-SPmax 250; manufactured by Molecular Devices Corp.), the absorbance of each well was measured at 450 nm and 655 nm. The value obtained by subtracting the absorbance at 450 nm from the absorbance at 655 nm (absorbance difference) was calculated for each well. The value for cells not incorporated with a test compound was designated as 100%, and the value at a well not containing cells was designated as 0%. By comparing these values with the absorbance difference obtained at the well in which each test compound was added, the cell viability (% viability) after treatment with the test compound was calculated.
# [3] = tested on: human renal cancer OS-RC-2 cells; experiment: Growth inhibition test on human renal cancer OS-RC-2 cells (WST-1, % viability); details: test compound 10 μmol/L, 72 hours, cells without test compound = 100%
# Experimental: as §1, with “One thousand” for “Five thousand”, “human renal cancer OS-RC-2” for “human T-cell lymphoma Karpas-299”, “using RPMI1640” for “using RPMI”, “for 24” for “for 5”, “spectrophotometer (Model 550;” for “spectrophotometer (SpectraMax 340PC384;”, “by Bio-Rad),” for “by Nihon Molecular Devices),”
# [4] = tested on: human lung cancer NCI-H596 cells; experiment: Growth inhibition test on human lung cancer NCI-H596 cells (WST-1, % viability); details: test compound 10 μmol/L, cells without test compound = 100%
# Experimental: as §1, with “Four thousand” for “Five thousand”, “human lung cancer NCI-H596” for “human T-cell lymphoma Karpas-299”, “using RPMI1640” for “using RPMI”, “for 24” for “for 5”, “spectrophotometer (Model 550;” for “spectrophotometer (SpectraMax 340PC384;”, “by Bio-Rad),” for “by Nihon Molecular Devices),”
# [5] = tested on: human acute myelocytic leukemia MV4; 11 cells; experiment: Growth inhibition test on human acute myelocytic leukemia MV4; 11 cells (WST-1, % viability); details: test compound 10 μmol/L, cells without test compound = 100%
# Experimental: as §1, with “Ten thousand” for “Five thousand”, “human acute myelocytic leukemia MV4; 11” for “human T-cell lymphoma Karpas-299”, “using IMDM” for “using RPMI”, “for 24” for “for 5”, “for 1 hour.” for “for 2 hours.”
SMILES,"Viability of tumor cells (% viability), Human T-cell lymphoma Karpas-299 cells [1]","Viability of tumor cells (% viability), Human chronic lymphocytic leukemia MEC-1 cells [2]","Viability of tumor cells (% viability), Human renal cancer OS-RC-2 cells [3]","Viability of tumor cells (% viability), Human lung cancer NCI-H596 cells [4]","Viability of tumor cells (% viability), Human acute myelocytic leukemia MV4; 11 cells [5]"
CCc1c(O)cc(O)c(C(=O)c2ccc(SC)cc2)c1CC(=O)N(CCO)CCOC [Compound 95],15%,4%,18%,14%,0%
CCc1c(O)cc(O)c(C(=O)c2ccc(OC)cc2)c1CC(=O)N(C)Cc1cccnc1 [Compound 16],13%,3%,17%,19%,0%
CCc1c(O)cc(O)c(C(=O)c2ccc(OC)cc2)c1CC(=O)N(CCO)CCO [Compound 13],27%,7%,66%,35%,0%
CCc1c(O)cc(O)c(C(=O)c2ccc(OC)c(OC)c2)c1CC(=O)N1CCN(c2ccccc2)CC1 [Compound 41],19%,4%,18%,12%,0%
CCc1c(O)cc(O)c(C(=O)c2ccc(OC)cc2)c1CC(=O)N1CCc2cc(OC)c(OC)cc2C1 [Compound 38],14%,4%,18%,15%,0%
CCc1c(O)cc(O)c(C(=O)c2ccc(OC(F)(F)F)cc2)c1CC(=O)N(CCO)CCOC [Compound 88],16%,5%,17%,14%,0%
CCc1c(O)cc(O)c(C(=O)c2ccc(OC)cc2)c1CC(=O)N(CCO)Cc1ccco1 [Compound 69],14%,4%,16%,15%,0%
CCc1c(O)cc(O)c(C(=O)c2ccc(OCCN3CCOCC3)c(OC)c2)c1CC(=O)N(CCOC)CCOC.Cl [Compound 139],14%,5%,21%,16%,1%
CCc1c(O)cc(O)c(C(=O)c2ccc(OC(F)F)cc2)c1CC(=O)N(CCO)CCOC [Compound 91],16%,4%,17%,14%,0%
CCc1c(O)cc(O)c(C(=O)c2ccc(OC)cc2)c1CC(=O)N1CCN(c2ccccc2C#N)CC1 [Compound 17],16%,4%,20%,16%,0%
